Literature values in patent publication US20020147153A1, “Nutritional supplement to alleviate symptoms associated with reduced levels of serotonin” (Functional Foods, Inc., priority 2001, published 2002).

How the values were obtained:
[1] = area under glycemic response curve, 2-hour period after 50 g carbohydrate, relative to white bread or glucose standard

Row | Compound | glycemic index (GI) [1] | time to increased mental alertness (safe and rapid manner) | time of maximum effect (then almost entirely excreted)
1 | O=C(CO)[C@@H](O)[C@H](O)[C@H](O)CO [Fructose] | 32 | – | –
2 | Cn1c(=O)c2c(ncn2C)n(C)c1=O [Caffeine] | – | approximately 30 minutes | 2 to 4.5 h
